This is an account of results in patent US11229628B2, “TRPA1 and TRPV4 inhibitors and methods of using the same for organ-specific inflammation and itch” (Duke University, priority 2015, dated 2022).

“Also recorded” adds a separate entry of the source. Where a SMILES comes first, the peptide text is derived from it. [ ]: non-standard residue; d: D form.

One assay deals with ET1 expression in 1° MK. The assay is described as follows: ET1 expression by UVB-exposed 1° MK (immunocytochemistry). The class given is cell-based, mouse. As to conditions: 295 nm UVB-LED, 24 hours. Here is the method: 1° MK were exposed to UVB using the UV optical system (295 nm LED). 24 hours later the cells were fixed and fluorescently immunolabeled for ET1. Digital images were captured and subjected to morphometry.
Mouse keratinocytes were cultured on collagen coated quartz coverslips and then stimulated from the bottom using the previously mentioned UV optical system using the 295 nm LED. 24 hours later the cells were fixed in 4% formaldehyde in PBS for 20 minutes, permeabilized with 0.1% Triton X-100 in PBS for 10 minutes, washed, then blocked in 10% normal goat serum in PBS for 45 minutes. Coverslips were incubated overnight with primary antibody mouse anti-ET1 (1:200; Abcam), washed three times in PBS and incubated with secondary antibody for 2 hours at 25° C. Coverslips were washed three times in PBS, once with double-distilled H2O. Digital images were captured using a 40× immersion lens on the BX61 Olympus upright microscope. Morphometric analysis was conducted using ImageJ freeware with tailored regions-of-interest.
(§1) We tested whether UVB causes ET1 upregulation in a TRPV4-dependent manner. Given the exquisite wave-length dependence of ET1 expression in 1° MKs, we resorted to the UVB-LED device as for Ca++ imaging (FIG. 6A and FIG. 2A-D). […] Consistent with its effects on UVB-evoked Ca++ transients, PLC-inhibitor U73122 also dampened ET1 expression. […] This leads to TRPV4-dependent Ca++ signaling, which in turn amplifies ET1 signaling in a paracrine/autocrine fashion.

The next assay deals with ET1 secretion by 1° MK. The assay is described as follows: ET1 secretion by non-stimulated 1° MK (ELISA of supernatant). The class given is cell-based, mouse. Here is the method:
FIG. 8: Central role for KC TRPV4 in UVB-evoked Ca^++ signaling and nocifensive behavior—ET1-related supplementary findings. (A) Augmentation of GSK101-evoked Ca^++ signaling by ET1. Shown are averaged Ca^++ measurements (fura-2) in response to 5 nM GSK101. […] (B) ET1 secretion by non-stimulated 1° MK depends on TRPV4 and PLC. Shown are relative ET1 concentrations (determined by ELISA, pg/mL; vehicle-treated and WT control normalized to 100) in supernatant of non-stimulated 1° MK. Note the clear dependence on TRPV4, as indicated by a 50% reduction in Trpv4^−/− 1° MK. […] In addition, PLC-inhibitor robustly affects ET1 secretion in WT and Trpv4^−/− 1° MK. (C) ET1 expression by UVB-exposed 1° MK depends on TRPV4 and PLC—immunocytochemistry. Shown is specific ET1 immunolabeling in 1° MK, exposed to UVB using the UVB-LEDs, as for Ca^++ imaging. Use of the UVB-LED device precluded application of a ET1 ELISA, only irradiated cells could be examined. […] (D) ET1 expression by UVB-exposed 1° MK depends on TRPV4 and PLC—quantification of immunocytochemistry.
as §1
(In general: In an ELISA, binding on a coated surface is turned into a signal by an enzyme label.)

For assay [1], the system named is primary mouse epidermal keratinocytes (1° MK). The assay is described as follows: UVB-evoked Ca++ signaling in primary mouse keratinocytes (fluo-4 imaging). The format is cell-based. Conditions: for UVB-evoked Ca++ signaling: fluo-4 ΔF/F0, GSK205 20 μM; for ET1-augmented UVB-evoked Ca++ signaling: UVB and ET1 co-exposure. Here is the method: Ca++ imaging of 1° MK was conducted following routine procedures. For UVB stimulation, a customized device was built. The system comprised a printed circuit board for electrical interconnects and mechanical support and an ultraviolet light-emitting diode (UV LED).
The operating wavelength was 295 nm (FIG. 2A), with a full-width half-max of 12 nm. The optical power was 500 mW. The focal point was aimed at the plane of the upper surface of the quartz coverslip, which was used to minimize UV absorption along the optical path towards the cells (FIG. 2A-C). The optical intensity at the focal point was estimated to be 150 mW/mm^2.
(§2) Ca++ imaging of mouse 1° MK in response to chemical activation of TRPV4 was conducted after loading with 2 μM fura2-AM, following a ratiometric Ca2+ imaging protocol with 340/380 nm […] for dual excitation. Ratios of emissions were acquired at 0.5 Hz. ΔR/R0 was determined as the fraction of the increase of a given ratio over baseline ratio, divided by baseline ratio. For stimulation of cells with UVB, where fura-2 was not suitable because of the proximity of stimulation with 340/380 nm and 295 nm, 2 μM fluo4-AM was used instead. Ca++ imaging was carried out at 488 nm excitation, acquisition of emissions at 0.5 Hz, expressed as ΔF/F0. In the custom-built UV optical system, UV LEDs were capped with a ball lens, a transparent optical window in the shape of a hemispherical lens (FIG. 2B). The LED output optical beam focused at 15-20 mm from the lens, with a spot diameter of approximately 1.5˜2.0 mm (FIG. 2C). […] The thermal equilibration stage was set for physiological temperature.
To further dissect the underlying mechanisms involved, we built a customized device for specific and narrow-band UVB stimulation of primary mouse epidermal keratinocytes (1° MK) cultured in vitro (FIG. 6A-B and FIG. 2A-D). This allowed use of the Ca++ sensitive dye, fluo-4, and assessment of 1° MK's Ca++ dynamics following UVB exposure (FIG. 6B). The elicited Ca++ signal was obliterated by a UV-refracting glass coverslip, underscoring the strict dependence of the calcium response on UVB (FIG. 6C and FIG. 2A).

Assay [2] addresses T1, TRPV4 (Mus musculus, UniProt Q9EPK8).
T1 construct: Primary mouse keratinocytes were derived from back skin of newborn mice; endogenous in cells; host or cells: primary mouse epidermal keratinocytes (1° MK), wild type
Description: 4α-PDD-evoked Ca++ signaling in 1° MK with ET1 co-application. The class given is cell-based. As to conditions: fura-2, ET1 co-application. Here is the method: FIG. 7: Central role for keratinocyte TRPV4 in UVB-evoked Ca++ signaling and nocifensive behavior—effects of ET1. (A) Effects of ET1 on UVB-evoked Ca++ signaling in 1° MKs. […] Panel (iii) illustrates the complete elimination of the ET1-augmented Ca++ transients when both subtypes of ET(R) are blocked. (B) 4α-PDD-evoked Ca++ signaling in 1° MKs—ET1-related findings. […] Quantifications are for n=3 mice/group. *** denotes statistically significant (p<0.001, t-test). (D) Nocifensive behavior in response to ET1 footpad injection depends on epidermal TRPV4. Bar diagram summarizes behavioral findings for Trpv4−/−vs. WT and for oil-treated vs. tam-treated iKO mice. […] Trpv4−/− and tam-treated iKO mice fail to respond; n≥7 mice/group, ** p<0.01, ANOVA.
Ca++ imaging of mouse 1° MK in response to chemical activation of TRPV4 was conducted after loading with 2 μM fura2-AM, following a ratiometric Ca2+ imaging protocol with 340/380 nm […] for dual excitation. Ratios of emissions were acquired at 0.5 Hz. ΔR/R0 was determined as the fraction of the increase of a given ratio over baseline ratio, divided by baseline ratio. For stimulation of cells with UVB, where fura-2 was not suitable because of the proximity of stimulation with 340/380 nm and 295 nm, 2 μM fluo4-AM was used instead. Ca++ imaging was carried out at 488 nm excitation, acquisition of emissions at 0.5 Hz, expressed as ΔF/F0. […]

In assay [3] the target is T1, TRPV4. The assay is described as follows: GSK101-evoked Ca++ transient in 1° MK (fura-2). The format is cell-based. Conditions: 5 nM GSK101. Here is the method:
as §2, with “temperature. We confirmed the non-thermal nature of UVB stimulation using the customized 295 nm LED device in a dedicated experiment (FIG. 2D), thus confirming the specific modality of stimulation as UVB.” for “temperature.”
We obtained corroborating findings by chemically activating TRPV4 with GSK101, which can directly stimulate TRPV4 in WT 1° MK. […]

T1 sequence (Q9EPK8 whole entry): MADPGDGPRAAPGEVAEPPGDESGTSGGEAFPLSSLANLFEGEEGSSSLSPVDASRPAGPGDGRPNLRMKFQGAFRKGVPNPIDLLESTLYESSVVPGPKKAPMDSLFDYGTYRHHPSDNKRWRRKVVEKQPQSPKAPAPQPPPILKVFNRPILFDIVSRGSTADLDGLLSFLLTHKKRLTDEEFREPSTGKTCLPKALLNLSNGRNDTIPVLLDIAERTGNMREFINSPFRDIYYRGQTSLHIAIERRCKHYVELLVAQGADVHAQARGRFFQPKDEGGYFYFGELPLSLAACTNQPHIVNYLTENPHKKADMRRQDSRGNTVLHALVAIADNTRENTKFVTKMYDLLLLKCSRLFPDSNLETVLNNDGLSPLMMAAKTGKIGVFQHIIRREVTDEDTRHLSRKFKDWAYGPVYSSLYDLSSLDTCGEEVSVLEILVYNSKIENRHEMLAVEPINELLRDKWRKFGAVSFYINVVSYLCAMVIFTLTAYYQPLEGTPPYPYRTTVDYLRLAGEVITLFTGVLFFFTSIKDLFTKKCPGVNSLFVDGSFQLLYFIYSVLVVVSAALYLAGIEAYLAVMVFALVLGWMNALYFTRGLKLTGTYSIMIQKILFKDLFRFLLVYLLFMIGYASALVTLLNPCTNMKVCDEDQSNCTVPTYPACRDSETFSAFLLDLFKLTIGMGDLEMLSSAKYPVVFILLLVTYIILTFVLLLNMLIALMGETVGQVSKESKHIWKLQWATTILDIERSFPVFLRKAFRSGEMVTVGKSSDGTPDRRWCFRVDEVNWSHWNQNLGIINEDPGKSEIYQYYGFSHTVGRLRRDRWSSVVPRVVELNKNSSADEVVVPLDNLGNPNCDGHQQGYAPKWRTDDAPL

`CC(C)NCCN(C(C)C)S(=O)(=O)c1ccc(Cl)cc1Cl` [RN1734]: the “ET1 immunoreactivity in UVB-exposed 1° MK” value (from here on “ET1 immunoreactivity”) with ET1 expression in 1° MK is recorded as “diminished; also recorded: significant down-regulation”. In the assay on ET1 secretion by 1° MK, the “ET1 secretion by non-stimulated 1° MK” value is given as “significant down-regulation”.

Consider endothelin-1 [ET1], for which the “UVB-evoked Ca++ signaling” value in assay [1] is “significant increase; also recorded: augmentation”. The “4α-PDD-evoked Ca++ response” value in the assay with TRPV4 [2] was “significant increase”. In addition, the “GSK101-evoked Ca++ signaling on co-exposure to ET1” value with TRPV4 [3] is on record as “augmented; also recorded: increase in signal”.

For `C=C(C)CCO[P@@](=O)(O)OP(=O)(O)O` [IPP, isopentenyl pyrophosphate], the “UVB-evoked Ca++ signaling” value in assay [1] was “no effect; also recorded: not inhibited”.

For `CCCC[C@@H](NC(=O)[C@@H](Cc1cn(C(=O)OC)c2ccccc12)NC(=O)[C@H](CC(C)(C)C)NC(=O)N1[C@H](C)CCC[C@@H]1C)C(=O)O` [BQ788], the “ET1-augmented UVB-evoked Ca++ signaling” value in assay [1] is listed as “attenuated”.

For the compound `COc1ccc2c(c1)CC[C@@H]1[C@@H]2CC[C@]2(C)[C@@H](NCCCCCCN3C(=O)C=CC3=O)CC[C@@H]12` [Compound U73122], the “ET1 immunoreactivity” value in the assay on ET1 expression in 1° MK is “dampened; also recorded: significant down-regulation”. In addition, in assay [1], the “UVB-evoked Ca++ signaling” value was “virtually eliminated; also recorded: strongly reduced”. Also, the “ET1 secretion by non-stimulated 1° MK” value with ET1 secretion by 1° MK is “down-regulation of ET1 secretion”.

As for `CC(C)C[C@@H]1NC(=O)[C@@H](C(C)C)NC(=O)[C@@H]2CCCN2C(=O)[C@@H](CC(=O)O)NC(=O)[C@@H](Cc2c[nH]c3ccccc23)NC1=O` [BQ123] (cyclo(L[dW][dD]P[dV])), the “ET1-augmented UVB-evoked Ca++ signaling” value in assay [1] was “attenuated”.

Take `O=C(O)C(Cc1ccc2c(c1)oc1ccccc12)NCP(=O)(O)O` (centres unmarked) [CGS35066]: the “ET1 immunoreactivity” value in the assay on ET1 expression in 1° MK is “significant down-regulation”. Also, in assay [1], the “UVB-evoked Ca++ signaling” value was “significantly diminished; also recorded: significant attenuation”. The “ET1 secretion by non-stimulated 1° MK” value with ET1 secretion by 1° MK was “down-regulation of ET1 secretion”.
